Results reported in patent US20240279207A1, “SUBSTITUTED ACYL SULFONAMIDES FOR TREATING CANCER” (The Broad Institute, Inc., priority 2020, published 2024).

Assays:
[1] = target: T1, Recombinant human His-tagged Kat6a protein (amino acids 194-810) (Homo sapiens, UniProt Q92794); test: Kat6a activity assay (TR-FRET, acetylation of Histone-H4-derived peptide); type: biochemical; details: 60 mins at 22° C., 220 nM H4 peptide, 600 nM Acetyl Coenzyme A, read-out: KAT6A - DPF/HAT domain IC50 [mol/l] (arithmetic mean)
T1 construct: Kat6a protein (amino acids 194-810); His

MDA-MB-436 cells = test: MDA-MB-436 proliferation assay (negative control cell line); type: cell-based; details: Homo sapiens, 144 h, Alamar Blue, read-out: MDA-MB-436 proliferation assay, EC50 [M] (arithmetic mean)
Source text: For compound characterization cell survival assays were routinely run in two cell lines. ZR-75-1 is a breast carcinoma cell line containing a focal KAT6A amplification and high KAT6A protein expression. Proliferation of this cell line is inhibited upon treatment with KAT6A inhibitors. As a negative control cell line MDA-MB-436 were used. These cells carry a […] deletion of the KAT6A gene, have a low KAT6A protein expression and are not growth inhibited upon treatment with KAT6A inhibitors.
For measurements cell lines were plated at the below indicated concentration per […] in 96-well plates in a humidified incubator at 37° C. and 5% CO2.
MDA-MB-436 (CLS, 300278; breast adenocarcinoma); 3000 cells per well; culture medium: DMEM/Ham's F12 (Biochrom #FG 4815) medium containing 2.5% FBS (Biochrom #S0615).
Each sample was prepared as triplicate and rim wells were excluded. Plates were incubated at 37° C. and 5% CO2 for 144 h. Cell viability was measured by adding 10 μL of Alamar Blue Reagent (Invitrogen #DAL 1100) and plates were incubated for 2 h at 37° C. and 5% CO2. Fluorescence was measured at 590 nm wavelength with a Tecan Spark or Victor X3 MTP-Reader (PerkinElmer).

[2] = system: ESR1 transcription in MVLN cells; test: MVLN reporter assay: repression of ESR1 transcription (luciferase signal); type: cell-based; details: Homo sapiens, MVLN, 24 h, luciferase signal after 24 h, read-out: MVLN reporter assay, IC50 [M] (arithmetic mean)
Outline: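 MVLN cells, expressing ER and stably carrying a vitellogenin A2 ERE-luciferase reporter, treated with compound in duplicate; luciferase read after 24 h with Steadylite plus. Cell density checked in parallel by Alamar Blue fluorescence (530/590 nm, 2 h) before the luciferase read.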

T1 sequence (Q92794 194-810): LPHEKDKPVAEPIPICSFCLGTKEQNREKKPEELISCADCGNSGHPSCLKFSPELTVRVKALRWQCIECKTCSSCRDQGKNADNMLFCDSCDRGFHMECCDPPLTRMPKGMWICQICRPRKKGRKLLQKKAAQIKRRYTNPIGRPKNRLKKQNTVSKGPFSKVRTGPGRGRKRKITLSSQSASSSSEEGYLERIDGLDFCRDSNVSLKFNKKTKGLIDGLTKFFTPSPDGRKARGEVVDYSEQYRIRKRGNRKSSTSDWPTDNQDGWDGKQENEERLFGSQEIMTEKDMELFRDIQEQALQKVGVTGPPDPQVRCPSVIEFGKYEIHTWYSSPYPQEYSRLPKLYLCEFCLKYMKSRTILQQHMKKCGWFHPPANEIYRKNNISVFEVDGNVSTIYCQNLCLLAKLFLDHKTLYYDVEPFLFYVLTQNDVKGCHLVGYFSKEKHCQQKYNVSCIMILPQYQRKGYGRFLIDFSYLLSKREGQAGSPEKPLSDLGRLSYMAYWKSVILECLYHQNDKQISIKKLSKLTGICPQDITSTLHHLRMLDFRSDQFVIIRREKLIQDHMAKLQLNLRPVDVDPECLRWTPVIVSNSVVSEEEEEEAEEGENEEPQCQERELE

| SMILES | IC50 [1] [nM] | EC50 (MDA-MB-436 cells) [M] | IC50 [2] [M] |
| --- | --- | --- | --- |
| Cc1ccc2cccc(S(=O)(=O)NC(=O)c3cc4c(F)cc(N5CCC5C)cc4o3)c2n1 (racemic) [Example 221, 4-Fluoro-6-(2-methylazetidin-1-yl)-N-[(2-methyl-8-quinolyl)sulfonyl]benzofuran-2-carboxamide (rac)] | 61.5 | > 2e-05 | 3.82e-07 |
| O=C(NS(=O)(=O)c1cccc2c1OC(F)(F)C(F)(F)O2)c1cc2c(F)cc(N3CCC3)cc2o1 [Example 140, 6-(Azetidin-1-yl)-4-fluoro-N-(2,2,3,3-tetrafluoro-2,3-dihydro-1,4-benzodioxine-5-sulfonyl)-1-benzofuran-2-carboxamide] | 27.6 | > 2e-05 | 2.91e-07 |
| CC1CCN1c1cc(F)c2cc(C(=O)NS(=O)(=O)c3ccccc3)oc2c1 (racemic) [Example 220, N-(Benzenesulfonyl)-4-fluoro-6-(2-methylazetidin-1-yl)benzofuran-2-carboxamide (rac)] | 982 | > 2e-05 | 6.23e-06 |
| CC1CCN1c1cc(F)c2cc(C(=O)NS(=O)(=O)c3ccccc3-c3ccccc3)oc2c1 (racemic) [Example 222, 4-Fluoro-6-(2-methylazetidin-1-yl)-N-(2-phenylphenyl)sulfonyl-benzofuran-2-carboxamide (rac)] | 129 | > 2e-05 | 1.44e-06 |
| CC1(C)CCN1c1cc(F)c2cc(C(=O)NS(=O)(=O)c3ccccc3)oc2c1 [Example 216, N-(benzenesulfonyl)-6-(2,2-dimethylazetidin-1-yl)-4-fluoro-benzofuran-2-carboxamide] | 9560 | > 2e-05 | > 2e-05 |
| CC1(C)CCN1c1cc(F)c2cc(C(=O)NS(=O)(=O)c3ccccc3-c3ccccc3)oc2c1 [Example 217, 6-(2,2-Dimethylazetidin-1-yl)-4-fluoro-N-(2-phenylphenyl)sulfonyl-benzofuran-2-carboxamide] | – | > 2e-05 | 1.05e-05 |
| CCCc1cccc(C(F)(F)F)c1S(=O)(=O)NC(=O)c1cc2c(F)cc(N3CCC3)cc2o1 [Example 58, 6-(Azetidin-1-yl)-4-fluoro-N-[2-propyl-6-(trifluoromethyl)benzene-1-sulfonyl]-1-benzofuran-2-carboxamide] | 315 | – | 3.87e-06 |
| CCCc1cccc(S(=O)(=O)NC(=O)c2cc3c(F)cc(N4CCC4)cc3o2)c1 [Example 40, 6-(Azetidin-1-yl)-4-fluoro-N-(3-propylbenzene-1-sulfonyl)-1-benzofuran-2-carboxamide] | 64.2 | – | 7.89e-07 |
| O=C(NS(=O)(=O)c1ccnc2ccccc12)c1cc2c(F)cc(N3CC(F)C3)cc2o1 [Example 111, 4-Fluoro-6-(3-fluoroazetidin-1-yl)-N-(quinoline-4-sulfonyl)-1-benzofuran-2-carboxamide] | 3080 | – | > 2e-05 |
| Cc1nc(N)c(S(=O)(=O)NC(=O)c2cc3c(F)cc(N4CCC4)cc3o2)c(C)c1Cl [Example 104, N-(2-amino-5-chloro-4,6-dimethylpyridine-3-sulfonyl)-6-(azetidin-1-yl)-4-fluoro-1-benzofuran-2-carboxamide] | 793 | – | 1.05e-05 |
| O=C(NS(=O)(=O)c1ccccc1C(=O)N1CCOCC1)c1cc2c(F)cc(N3CCC3)cc2o1 [Example 73, 6-(Azetidin-1-yl)-4-fluoro-N-[2-(morpholine-4-carbonyl)benzene-1-sulfonyl]-1-benzofuran-2-carboxamide] | 105 | – | 2.56e-06 |
| Cc1cc(Nc2ccccc2S(=O)(=O)NC(=O)c2cc3c(F)cc(N4CCC4)cc3o2)n(-c2ccccc2)n1 [Example 70, 6-(Azetidin-1-yl)-4-fluoro-N-{2-[(3-methyl-1-phenyl-1H-pyrazol-5-yl)amino]benzene-1-sulfonyl}-1-benzofuran-2-carboxamide] | 494 | – | 1.58e-05 |
| COC(=O)Nc1cccc2c(S(=O)(=O)NC(=O)c3cc4c(F)cc(N5CCC5)cc4o3)cccc12 [Example 192, Methyl (5-{[6-(azetidin-1-yl)-4-fluoro-1-benzofuran-2-carbonyl]sulfamoyl}naphthalen-1-yl)carbamate] | 2000 | – | > 2e-05 |
| O=C(NS(=O)(=O)c1ncccc1Br)c1cc2c(F)cc(N3CCC3)cc2o1 [Example 69, 6-(Azetidin-1-yl)-N-(3-bromopyridine-2-sulfonyl)-4-fluoro-1-benzofuran-2-carboxamide] | 325 | – | 1.56e-05 |
| CC(C)OC(=O)c1ccccc1S(=O)(=O)NC(=O)c1cc2c(F)cc(N3CCC3)cc2o1 [Example 101, Propan-2-yl 2-{[6-(azetidin-1-yl)-4-fluoro-1-benzofuran-2-carbonyl]sulfamoyl}benzoate] | 121 | – | 1.94e-06 |
| NS(=O)(=O)c1cc(COC(=O)c2cc3c(F)cc(N4CCC4)cc3o2)ccc1OC(F)(F)F [Example 93, [3-sulfamoyl-4-(trifluoromethoxy)phenyl]methyl 6-(azetidin-1-yl)-4-fluoro-1-benzofuran-2-carboxylate] | 1160 | – | > 2e-05 |
| CC(C)c1ccc(C(C)C)c(S(=O)(=O)NC(=O)c2cc3c(F)cc(N4CCC4)cc3o2)c1 [Example 30, 6-(Azetidin-1-yl)-N-[2,5-di(propan-2-yl)benzene-1-sulfonyl]-4-fluoro-1-benzofuran-2-carboxamide] | 24.7 | – | 4.18e-07 |

Continued, values first:

| IC50 [1] [nM] | EC50 (MDA-MB-436 cells) [M] | IC50 [2] [M] | SMILES |
| --- | --- | --- | --- |
| 16.5 | > 2e-05 | 9.74e-08 | CCOc1ccc(Br)cc1S(=O)(=O)NC(=O)c1cc2c(F)cc(N3CCC3)cc2o1 [Example 135, 6-(Azetidin-1-yl)-N-(5-bromo-2-ethoxybenzene-1-sulfonyl)-4-fluoro-1-benzofuran-2-carboxamide] |
| 82.8 | – | 9.24e-07 | COc1c(S(=O)(=O)NC(=O)c2cc3c(F)cc(N4CCC4)cc3o2)ccc(Cl)c1Cl [Example 183, 6-(Azetidin-1-yl)-N-(3,4-dichloro-2-methoxybenzene-1-sulfonyl)-4-fluoro-1-benzofuran-2-carboxamide] |
| 55.1 | – | 2.98e-07 | CC1(C)Cc2cccc(S(=O)(=O)NC(=O)c3cc4c(F)cc(N5CCC5)cc4o3)c2O1 [Example 21, 6-(Azetidin-1-yl)-N-(2,2-dimethyl-2,3-dihydro-1-benzofuran-7-sulfonyl)-4-fluoro-1-benzofuran-2-carboxamide] |
| 131 | – | 6.48e-06 | O=C(NS(=O)(=O)c1cc(CO)ccc1OC(F)(F)F)c1cc2c(F)cc(N3CCC3)cc2o1 [Example 63, 6-(Azetidin-1-yl)-4-fluoro-N-[5-(hydroxymethyl)-2-(trifluoromethoxy)benzene-1-sulfonyl]-1-benzofuran-2-carboxamide] |
| 66.6 | – | 5.53e-07 | Cn1nc2cccc(S(=O)(=O)NC(=O)c3cc4c(F)cc(N5CCC5)cc4o3)c2n1 [Example 179, 6-(Azetidin-1-yl)-4-fluoro-N-(2-methyl-2H-benzotriazole-4-sulfonyl)-1-benzofuran-2-carboxamide] |
| 345 | – | 1.1e-05 | COc1cccnc1S(=O)(=O)NC(=O)c1cc2c(F)cc(N3CCC3)cc2o1 [Example 67, 6-(Azetidin-1-yl)-4-fluoro-N-(3-methoxypyridine-2-sulfonyl)-1-benzofuran-2-carboxamide] |
| 35.9 | – | 6.28e-07 | COc1ccc(S(=O)(=O)NC(=O)c2cc3c(F)cc(N4CCC4)cc3o2)c2c1CCCC2 [Example 180, 6-(Azetidin-1-yl)-4-fluoro-N-(4-methoxy-5,6,7,8-tetrahydronaphthalene-1-sulfonyl)-1-benzofuran-2-carboxamide] |
| 24.2 | – | 1.92e-07 | CC1Cc2cccc(S(=O)(=O)NC(=O)c3cc4c(F)cc(N5CCC5)cc4o3)c2O1 (centres unmarked) [Example 18, 6-(Azetidin-1-yl)-4-fluoro-N-[2-methyl-2,3-dihydro-1-benzofuran-7-sulfonyl]-1-benzofuran-2-carboxamide] |
| 64.5 | – | 1.2e-06 | Cc1ccc(S(=O)(=O)NC(=O)c2cc3c(F)cc(N4CCC4)cc3o2)c2ccccc12 [Example 87, 6-(azetidin-1-yl)-4-fluoro-N-(4-methylnaphthalene-1-sulfonyl)-1-benzofuran-2-carboxamide] |
| 337 | – | 2.76e-06 | CCOc1cccc(S(=O)(=O)NC(=O)c2cc3c(F)cc(N4CCC4)cc3o2)c1 [Example 75, 6-(Azetidin-1-yl)-N-(3-ethoxybenzene-1-sulfonyl)-4-fluoro-1-benzofuran-2-carboxamide] |
| 45.4 | – | 7.78e-08 | CCOc1cc(F)ccc1S(=O)(=O)NC(=O)c1cc2c(F)cc(N3CCC3)cc2o1 [Example 208, 6-(Azetidin-1-yl)-N-(2-ethoxy-4-fluoro-phenyl)sulfonyl-4-fluoro-benzofuran-2-carboxamide] |
